Test results: ChEMBL document CHEMBL3832023, “DailyMed|setid=c8b93fc1-472c-4890-8d02-2ee4f7175c22 | BUTALBITAL, ASPIRIN, CAFFEINE AND CODEINE PHOSPHATE- butalbital, aspirin,caffeine and codeine phosphate capsule|Jerome Stevens Pharmaceuticals”

What was measured:
[1] = (§1) Pharmacokinetic parameters for aspirin and salicylic acid following oral administration of Aspirin,butalbital,caffeine phosphate capsules.; assay type: ADME, organism-based; parameters: dose 650 mg, route oral; conditions: human, in vivo, dosed compound id 37, dosed compound name ASPIRIN, tissue Plasma; for half-life: dose 650 mg, route oral
[2] = system: Homo sapiens; assay: as §1; assay type: ADME, organism-based; parameters: dose 650 mg, route oral; conditions: in vivo, po, dose 650 mg, dosed compound id 37, dosed compound name ASPIRIN, tissue Plasma

## O=C(O)c1ccccc1O [SALICYLIC ACID]
[1]
  half-life: 180 min

## CC(=O)Oc1ccccc1C(=O)O [ASPIRIN]
[2]
  Tmax: 40 min
[1]; po, 650 mg
  Cmax: 8800 ng/mL
[1]
  half-life: 12 min
